Results from patent US8945865B2, “Method for screening for compound capable of enhancing or inhibiting OATP1B1 transport activity, and method for determining expression level of OATP1B1” (Eisai R&D Management Co., Ltd., priority 2011, dated 2015).

Key:
[1] = system: human hepatocytes; experiment: Effect of OATP inhibitors on DCF uptake by human hepatocytes; conditions: inhibitor final 10 μM, 37° C.; reduced to the level comparable to the uptake at 4° C.
Description: (§1) Human hepatocytes were prepared as in Example 6, and a hepatocyte suspension was prepared at 1×10^6 cells/mL.

[2] = biological target: T1, OATP1B1 (Homo sapiens, UniProt Q9Y6L6, N130D); experiment: OATP1B1 inhibition, conventional RI method (radiolabeled estradiol-17β-D-glucuronide)
T1 sequence (Q9Y6L6 1-691 N130D): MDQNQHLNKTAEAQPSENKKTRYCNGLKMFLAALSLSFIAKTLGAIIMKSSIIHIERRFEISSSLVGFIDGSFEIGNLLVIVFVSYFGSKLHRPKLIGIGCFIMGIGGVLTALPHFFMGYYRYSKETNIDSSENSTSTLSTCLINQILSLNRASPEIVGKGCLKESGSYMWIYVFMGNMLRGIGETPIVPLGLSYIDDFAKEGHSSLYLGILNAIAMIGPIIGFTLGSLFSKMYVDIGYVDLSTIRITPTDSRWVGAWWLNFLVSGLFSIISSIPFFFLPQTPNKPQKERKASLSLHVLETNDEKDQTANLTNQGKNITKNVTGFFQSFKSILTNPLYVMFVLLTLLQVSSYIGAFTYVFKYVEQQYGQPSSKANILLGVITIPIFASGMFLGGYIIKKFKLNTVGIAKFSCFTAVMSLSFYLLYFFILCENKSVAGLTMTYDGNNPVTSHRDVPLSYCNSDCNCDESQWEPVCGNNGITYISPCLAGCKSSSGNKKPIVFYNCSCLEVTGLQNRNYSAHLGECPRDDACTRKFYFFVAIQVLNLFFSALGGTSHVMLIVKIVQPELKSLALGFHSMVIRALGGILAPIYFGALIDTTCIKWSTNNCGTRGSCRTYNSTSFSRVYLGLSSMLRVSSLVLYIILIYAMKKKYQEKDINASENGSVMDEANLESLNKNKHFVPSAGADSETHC
Description: In the conventional RI method, radiolabeled estradiol-17β-D-glucuronide (EG) was used. […] Subsequently, the cells were washed with an ice-cold KH buffer three times and then solubilized with an aqueous 0.1 N NaOH solution, and after neutralization with an aqueous 1 N HCl solution, the radioactivity taken up by the cells was measured.

[3] = biological target: T1, OATP1B1; experiment: OATP1B1 inhibition, DCF method (fluorescent substrate)
[4] = system: human hepatocytes
Description: as §1

[5] = biological target: T1, OATP1B1; experiment: Time profiles of the uptake of DCF by OATP1B1; type: in vitro ADME; design: Expression vectors, pcDNA3.1 vectors (Invitrogen Corporation), carrying the resulting genes were respectively introduced into HEK-293 cells; expressed in transfected cells; host or cells: HEK-293 cells, pcDNA3.1 vector, hygromycin selection; conditions: 0.1, 1 and 10 μM DCF, 37° C., 1 to 30 min
Description: The cells were sampled at the incubation times of 1 min, 5 min, 10 min, and 30 min, washed with an ice-cold KH buffer three times, and then solubilized with an aqueous 0.1 N NaOH solution, and the fluorescence intensity of the fluorescent dye taken up by the cells was measured as in Example 1 (excitation wavelength: 490 nm, fluorescence wavelength: 515 nm).

[6] = biological target: T1, OATP1B1
Description: The Km and Vmax were calculated by the following Michaelis-Menten equation. […] Each parameter represents the mean value of four independent experiments.

[7] = biological target: T1, OATP1B1; experiment: Substrate specificity of fluorescein derivatives: uptake by HEK-293 cells forcedly expressing OATP1B1; type: in vitro ADME; design: Expression vectors, pcDNA3.1 vectors (Invitrogen Corporation), carrying the resulting genes were respectively introduced into HEK-293 cells; expressed in transfected cells; host or cells: HEK-293 cells, pcDNA3.1 vector, hygromycin selection; conditions: 1 μM dye, 37° C., 5 minutes, compared with OATP1B3 and OATP2B1
Description: Complementary DNAs of OATP1B1, OATP1B3, and OATP2B1 (respectively shown by SEQ ID NOs: 2, 3, and 4) were cloned by RT-PCR using human liver total RNA (Invitrogen Corporation) as a template and the following primers: […]
Expression vectors, pcDNA3.1 vectors (Invitrogen Corporation), carrying the resulting genes were respectively introduced into HEK-293 cells by lipofection using Lipofectamin 2000 (Invitrogen Corporation). The cells were cultured in Hygromycin-containing selective media to produce HEK-293 cells forcedly expressing OATP1B1, OATP1B3, and OATP2B1, respectively.

[8] = system: human hepatocytes; experiment: Time/temperature-dependent uptake of DCF by human hepatocytes; type: in vitro ADME; conditions: 37° C. versus 4° C., 0.5 to 5 min, cryopreserved human hepatocytes
Description: Cryopreserved human hepatocytes and cryopreserved hepatocytes recovery medium (CHRM) were purchased from Invitrogen Corporation. The cryopreserved human hepatocytes were thawed in a water bath at 37° C. and were added to the CHRM prewarmed at 37° C. After centrifugation at room temperature, the supernatant was discarded, and a hepatocyte suspension at 1×10^6 cells/mL was prepared in ice-cold KH buffer and stored on ice. […] The hepatocytes were incubated at 37° C. and 4° C., respectively, for 0 to 5 minutes. […] Specifically, 80 μL of the hepatocyte suspension was collected and added to a centrifugal tube containing 50 μL of oil (specific gravity: 1.015, Sigma-Aldrich Co.) and 100 μL of an aqueous 2 N NaOH solution under the oil layer, and centrifugation was performed at 10,000 g for 20 seconds. By the centrifugation, the hepatocytes passed through the oil layer and were solubilized with an aqueous 2 N NaOH solution.

[9] = biological target: T2, OAT3 (Homo sapiens, UniProt Q8TCC7); experiment: Substrate specificity of fluorescein derivatives on OAT3 (same method); conditions: FIG. 1(b), same method as Example 1
T2 sequence (Q8TCC7 1-542): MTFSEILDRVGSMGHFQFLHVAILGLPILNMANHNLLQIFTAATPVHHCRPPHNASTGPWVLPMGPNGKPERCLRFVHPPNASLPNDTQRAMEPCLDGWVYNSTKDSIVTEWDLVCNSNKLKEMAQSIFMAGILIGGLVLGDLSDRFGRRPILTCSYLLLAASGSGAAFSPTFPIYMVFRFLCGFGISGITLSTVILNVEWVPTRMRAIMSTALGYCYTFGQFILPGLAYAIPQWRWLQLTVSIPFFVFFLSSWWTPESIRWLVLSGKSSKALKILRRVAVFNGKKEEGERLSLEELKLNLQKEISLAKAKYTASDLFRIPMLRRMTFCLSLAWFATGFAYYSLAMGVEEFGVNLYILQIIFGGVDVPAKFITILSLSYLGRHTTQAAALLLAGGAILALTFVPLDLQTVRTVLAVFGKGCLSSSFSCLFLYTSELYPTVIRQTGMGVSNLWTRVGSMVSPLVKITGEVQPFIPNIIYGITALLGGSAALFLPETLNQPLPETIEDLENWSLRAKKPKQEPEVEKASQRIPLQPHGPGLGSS
Description: The above cells were seeded in a poly-D-lysine-coated dish at 4×10^5 cells/well. The medium was replaced with a KH buffer, and various fluorescent dyes dissolved in DMSO were added to the respective HEK-293 cells such that the final concentration in the KH buffer was 1 μM, followed by incubation at 37° C. for 5 minutes. Subsequently, the cells were washed with an ice-cold KH buffer three times and were then solubilized with an aqueous 0.1 N NaOH solution, and the fluorescence intensity of the fluorescent dye taken up by the cells was measured (excitation wavelength: 490 nm, fluorescence wavelength: 515 nm).
In order to quantitatively measure the amount of fluorescent compound taken up by the cells, a calibration curve showing the fluorescence intensity per unit fluorescent compound was prepared in advance. Based on this calibration curve, the measured fluorescence intensity was converted into the fluorescent compound per well (pmol/well or μL/well), which was divided by the total protein amount (mg protein/well) of the solubilized cells (standardization) to convert into the fluorescent compound amount per unit protein (pmol/mg protein or μL/mg protein).

[10] = biological target: T1, OATP1B1; experiment: Effect of known OATP inhibitors on OATP1B1-mediated uptake of DCF; conditions: DCF 3 μM, inhibitor 10 and 30 μM
[11] = read-out: Ki (EG), substrate radiolabeled EG 0.01 μM, HEK-293 cells forcedly expressing OATP1B1, 37° C., 5 minutes
[12] = read-out: Ki (DCF), substrate DCF 3 μM, HEK-293 cells forcedly expressing OATP1B1, 37° C., 5 minutes

| Ki [2] [nM] | Ki [3] [nM] | Compound | other results |
| --- | --- | --- | --- |
| > 300000 | > 300000 | CN/C(=N/CCSCc1nc[nH]c1C)NC#N [Cimetidine] |  |
| 4140 | 6990 | CC[C@H]1OC(=O)[C@H](C)[C@@H](O[C@H]2C[C@@](C)(OC)[C@@H](O)[C@H](C)O2)[C@H](C)[C@@H](O[C@@H]2O[C@H](C)C[C@H](N(C)C)[C@H]2O)[C@](C)(O)C[C@@H](C)C(=O)[C@H](C)[C@@H](O)[C@]1(C)O [Erythromycin] |  |
| 12200 | 15600 | CC(=O)N1CCN(c2ccc(OCC3COC(Cn4ccnc4)(c4ccc(Cl)cc4Cl)O3)cc2)CC1 (stereo not drawn) [Ketoconazole] |  |
| > 300000 | > 300000 | CN(Cc1cnc2nc(N)nc(N)c2n1)c1ccc(C(=O)N[C@@H](CCC(=O)O)C(=O)O)cc1 [Methotrexate] |  |
| 290 | 260 | CO[C@H]1/C=C/O[C@@]2(C)Oc3c(C)c(O)c4c(O)c(c(/C=N/N5CCN(C)CC5)c(O)c4c3C2=O)NC(=O)/C(C)=C\C=C\[C@H](C)[C@H](O)[C@@H](C)[C@@H](O)[C@@H](C)[C@H](OC(C)=O)[C@@H]1C [Rifampicin, rifampicin] |  |
| 890 | 1270 | C=CC[C@@H]1/C=C(\C)C[C@H](C)C[C@H](OC)[C@H]2O[C@@](O)(C(=O)C(=O)N3CCCC[C@H]3C(=O)O[C@H](/C(C)=C/[C@@H]3CC[C@@H](O)[C@H](OC)C3)[C@H](C)[C@@H](O)CC1=O)[C@H](C)C[C@@H]2OC [Tacrolimus] |  |

Further lines, the molecule ahead of its results:

| Compound | Ki [2] [nM] | Ki [3] [nM] | other results |
| --- | --- | --- | --- |
| O=C1OC(c2ccc(O)c(S(=O)(=O)O)c2)(c2ccc(O)c(S(=O)(=O)O)c2)c2c(Br)c(Br)c(Br)c(Br)c21 [BSP, bromosulfophthalein] |  |  | DCF uptake by human hepatocytes in presence of inhibitor [1]: reduced; Ki [2, 11]: 73 nM; Ki [3, 12]: 92 nM |
| O=C1OC2(c3cc(Cl)c(O)cc3Oc3cc(O)c(Cl)cc32)c2ccccc21 [DCF, Dichlorofluorescein] |  |  | Km [4]: 38.6 µM; uptake amount of DCF by HEK-293 cells forcedly expressing OATP1B1 [5]: increases over time and depends on the concentration of added DCF; Km [6]: 7.22 µM; uptake of fluorescent dye among the combinations of fluorescent dye and transporters tested [7]: highest uptake; transporter-mediated uptake of DCF by human hepatocytes [8]: increases over time; substrate for OAT3 [9]: not a satisfactory substrate |
| C[C@]12CC[C@@H]3c4ccc(OS(=O)(=O)O)cc4CC[C@H]3[C@@H]1CCC2=O [ES, estrone-3-sulfate] |  |  | concentration dependence of inhibition of OATP1B1-mediated DCF uptake [10]: inhibition depends on the concentrations; Ki [2, 11]: 78 nM; Ki [3, 12]: 79 nM |
| C[C@H](CCC(=O)NCCS(=O)(=O)O)[C@H]1CC[C@H]2[C@@H]3[C@H](O)C[C@@H]4C[C@H](O)CC[C@]4(C)[C@H]3C[C@H](O)[C@]12C [Taurocholic acid] | 17500 | 8680 |  |
| C[C@]12CC[C@@H]3c4ccc(O)cc4CC[C@H]3[C@@H]1CC[C@@H]2O[C@@H]1O[C@H](C(=O)O)[C@@H](O)[C@H](O)[C@H]1O [estradiol-17β-D-glucuronide] |  |  | concentration dependence of inhibition of OATP1B1-mediated DCF uptake [10]: inhibition depends on the concentrations |
